Data: patent publication US10738028B2, “Spiro three-membered ring, spiro five-membered ring peptide deformylase inhibitor and use thereof in antibacteria and anti-tumor” (priority 2016, dated 2020)
Values after ≈ are worked out from the molar mass of the structure shown. Read-outs that look alike come from different tables or passages of the source.

Experiments:
Type in all cases: cell-based
[1] = tested on: HCT-116 colorectal cancer cell line; experiment: CCK-8 proliferation inhibition; conditions: Homo sapiens, HCT-116, 72 h, concentration of 30 μM, 72 hours, CCK-8
Procedure, shortened: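 2000 cells/well, McCoy's 5A + 10% newborn bovine serum; overnight attach, 37° C./5% CO2. Cpd from DMSO stock diluted in medium, 72 h. Readout: CCK-8 (1:10). Ctrl 1‰ DMSO.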

[2] = tested on: Escherichia coli (including ESBLs, non-ESBLs); experiment: MIC, two-fold agar dilution (CLSI), clinical isolates
Procedure, shortened: (§1)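 Following the American Clinical and Laboratory Standards Institute procedure, agar two-fold dilution served to determine minimum inhibitory concentrations.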

[3] = tested on: methicillin-resistant Staphylococcus epidermidis (MRSE); experiment: as above
Procedure, shortened: as §1

[4] = tested on: methicillin-sensitive Staphylococcus epidermidis (MSSE); experiment: as above
Procedure, shortened: as §1

[5] = tested on: methicillin-resistant Staphylococcus aureus (MRSA); experiment: as above
Procedure, shortened: as §1

[6] = tested on: Enterococcus faecalis (EFA); experiment: as above
Procedure, shortened: as §1

[7] = tested on: Moraxella catarrhalis (BCA); experiment: as above
Procedure, shortened: as §1

[8] = tested on: Streptococcus pneoumoniae (SPN); experiment: as above
Procedure, shortened: as §1

[9] = tested on: methicillin-sensitive Staphylococcus aureus (MSSA); experiment: as above
Procedure, shortened: as §1

[10] = tested on: Enterococcus faecium (EFM); experiment: as above
Procedure, shortened: as §1

[11] = tested on: MGC-803 gastric cancer cell line; experiment: CCK-8 proliferation inhibition; conditions: Homo sapiens, MGC-803, 72 h, concentration of 30 μM
Text: (§2) 2. The present invention adopts the CCK-8 method to determine the proliferation inhibition effect of the spiro three-membered ring, spiro five-membered ring peptide deformylase inhibitor as described in Examples 1-80 against colorectal cancer cells, lung cancer cells, gastric cancer cells, liver cancer cells, and the like. […] The compound having the best activity synthesized in Example 64 was further tested for its inhibitory activity against other tumor cells including T cell leukemia, acute myeloid leukemia, cervical cancer, breast cancer, prostate cancer and osteosarcoma, and the like (see Table 7).
(§3) (1) HCT-116 colorectal cancer cell line, A549 lung cancer cell line, MGC-803 gastric cancer cell line, BEL-7402 liver cancer cell line, Jurkat T cell leukemia cell line, HL60 acute myeloid leukemia cell line, Hela cervical cancer cell line, MCF-7 breast cancer cell line, PC3 prostate cancer cell line and SAOS-2 osteosarcoma cell line were made into single cell suspension, 180 μL of which was inoculated into 96-well culture plate, which was cultured overnight in CO2 incubator (37° C., 5% CO2, 95% air).
(§4) (2) Each of the spiro three-membered ring, spiro five membered ring peptide deformylase inhibitors was dissolved in DMSO, and was further formulated into drug solution with required different final concentration using corresponding cell culture medium. The drug solutions were added to the above cells respectively (20 μL/well), with the control group added with 1‰ DMSO, and cultured in a CO2 incubator for 72 hours.
(§5) (3) After incubation for 72 hours, the culture solution was decanted, and 100 μL of 1:10 diluted CCK-8 solution was added.
(§6) Wherein, in step (1), the concentration of the single cell suspension was 2000 cells/well.
(§7) Wherein, in step (2), HCT-116 cells were cultured in McCoy's 5A medium (containing 10% newborn bovine serum, 1% double antibody); A549 and PC3 cells were cultured in F12 medium (containing 10% newborn bovine serum, 1% double antibody); MGC-803, BEL-7402, SAOS-2, Jurkat and HL60 cells were cultured in 1640 medium (containing 10% newborn bovine serum, 1% double antibody); and MCF-7 and Hela cells were cultured in DMEM high glucose medium (containing 10% newborn bovine serum, 1% double antibody).

[12] = tested on: BEL-7402 liver cancer cell line; experiment: CCK-8 proliferation inhibition; conditions: concentration of 30 μM
Text: as §2, §3, §4, §5, §6, §7

[13] = tested on: A549 lung cancer cell line; experiment: CCK-8 proliferation inhibition; conditions: Homo sapiens, A549, 72 h, concentration of 30 μM
Text: as §2, §3, §4, §5, §6, §7

With O=CN(O)C[C@@H](CC1CCCC1)C(=O)N1CC2(CC2)C[C@H]1C(=O)Nc1ccc(N2CCOCC2)cc1 [Example 25, (S)-5-((R)-3-cyclopentyl-2-((N-hydroxyformamido)methyl)propionyl)-N-(4-morpholinophenyl)-5-spiro[2.4]heptane-6-carboxamide] the inhibition at 30 µM ([1]; Table 5, read-out: Inhibition of proliferation, Colorectal cancer HCT116) was at least 30%, the inhibition at 30 µM ([1]; read-out: HCT116 inhibition rate/%) was 35% and the MIC (anti-bacterial activity) ([2]; strain ECO+ 15-1) was 32 µg/mL (≈ 64.2 µM). For the same compound, the MIC (anti-bacterial activity) ([2]; strain ECO+ 15-2) was over 32 µg/mL, the MIC (anti-bacterial activity) ([2]; strain ECO+ 15-3) was over 32 µg/mL and the MIC (anti-bacterial activity) ([2]; strain ECO+ 15-4) was over 32 µg/mL. The MIC (anti-bacterial activity) ([2]; strain ECO− 15-1) was over 32 µg/mL, the MIC (anti-bacterial activity) ([2]; strain ECO− 15-2) was over 32 µg/mL and the MIC (anti-bacterial activity) ([2]; strain ECO− 15-3) was over 32 µg/mL. It also gave an MIC (anti-bacterial activity) ([2]; strain ECO− 15-4) of over 32 µg/mL, an MIC (anti-bacterial activity) ([3]; strain MRSE 15-1) of 0.06 µg/mL (≈ 0.12 µM) and an MIC (anti-bacterial activity) ([3]; strain MRSE 15-2) of 0.25 µg/mL (≈ 0.501 µM). The MIC (anti-bacterial activity) ([3]; strain MRSE 15-3) was 0.25 µg/mL (≈ 0.501 µM), the MIC (anti-bacterial activity) ([3]; strain MRSE 15-7) was 0.25 µg/mL (≈ 0.501 µM) and the MIC (anti-bacterial activity) ([4]; strain MSSE 15-3) was 0.25 µg/mL (≈ 0.501 µM). It also gave an MIC (anti-bacterial activity) ([4]; strain MSSE 15-4) of 0.25 µg/mL (≈ 0.501 µM), an MIC (anti-bacterial activity) ([4]; strain MSSE 15-5) of 0.25 µg/mL (≈ 0.501 µM) and an MIC (anti-bacterial activity) ([4]; strain MSSE 15-6) of 0.25 µg/mL (≈ 0.501 µM). It also gave an MIC (anti-bacterial activity) ([5]; strain MRSA 15-1) of 0.25 µg/mL (≈ 0.501 µM), an MIC (anti-bacterial activity) ([5]; strain MRSA 15-2) of 0.25 µg/mL (≈ 0.501 µM) and an MIC (anti-bacterial activity) ([5]; strain MRSA 15-3) of 0.25 µg/mL (≈ 0.501 µM). For the same compound, the MIC (anti-bacterial activity) ([5]; strain MRSA 15-4) was 0.25 µg/mL (≈ 0.501 µM), the MIC (anti-bacterial activity) ([6]; strain EFA 15-1) was 2 µg/mL (≈ 4.01 µM) and the MIC (anti-bacterial activity) ([6]; strain EFA 15-2) was 2 µg/mL (≈ 4.01 µM). For the same compound, the MIC (anti-bacterial activity) ([6]; strain EFA 15-3) was 0.5 µg/mL (≈ 1 µM), the MIC (anti-bacterial activity) ([6]; strain EFA 15-4) was 2 µg/mL (≈ 4.01 µM) and the MIC (anti-bacterial activity) ([6]; strain EFA 15-5) was 2 µg/mL (≈ 4.01 µM). The MIC (anti-bacterial activity) ([6]; strain EFA 15-6) was 2 µg/mL (≈ 4.01 µM), the MIC (anti-bacterial activity) ([6]; strain EFA 15-9) was 2 µg/mL (≈ 4.01 µM) and the MIC (anti-bacterial activity) ([7]; strain BCA 14-1) was 0.5 µg/mL (≈ 1 µM). For the same compound, the MIC (anti-bacterial activity) ([7]; strain BCA 14-4) was 0.25 µg/mL (≈ 0.501 µM), the MIC (anti-bacterial activity) ([7]; strain BCA 14-5) was 0.5 µg/mL (≈ 1 µM) and the MIC (anti-bacterial activity) ([7]; strain BCA 14-6) was 1 µg/mL (≈ 2.01 µM). It also gave an MIC (anti-bacterial activity) ([7]; strain BCA 14-7) of 0.25 µg/mL (≈ 0.501 µM), an MIC (anti-bacterial activity) ([7]; strain BCA 14-8) of 0.25 µg/mL (≈ 0.501 µM) and an MIC (anti-bacterial activity) ([7]; strain BCA 14-10) of 0.25 µg/mL (≈ 0.501 µM). For the same compound, the MIC (anti-bacterial activity) ([8]; strain SPN 16-2) was 0.5 µg/mL (≈ 1 µM), the MIC (anti-bacterial activity) ([8]; strain SPN 16-4) was 2 µg/mL (≈ 4.01 µM) and the MIC (anti-bacterial activity) ([9]; strain MSSA 15-3) was 0.25 µg/mL (≈ 0.501 µM). For the same compound, the MIC (anti-bacterial activity) ([9]; strain MSSA 15-4) was 0.25 µg/mL (≈ 0.501 µM), the MIC (anti-bacterial activity) ([9]; strain MSSA 15-5) was 0.25 µg/mL (≈ 0.501 µM) and the MIC (anti-bacterial activity) ([9]; strain MSSA 15-6) was 0.25 µg/mL (≈ 0.501 µM). For the same compound, the MIC (anti-bacterial activity) ([10]; strain EFM 15-1) was 1 µg/mL (≈ 2.01 µM), the MIC (anti-bacterial activity) ([10]; strain EFM 15-2) was 0.5 µg/mL (≈ 1 µM) and the MIC (anti-bacterial activity) ([10]; strain EFM 15-3) was 0.5 µg/mL (≈ 1 µM). The MIC (anti-bacterial activity) ([10]; strain EFM 15-4) was 0.25 µg/mL (≈ 0.501 µM), the MIC (anti-bacterial activity) ([10]; strain EFM 15-5) was 0.5 µg/mL (≈ 1 µM) and the MIC (anti-bacterial activity) ([10]; strain EFM 15-6) was 1 µg/mL (≈ 2.01 µM). For the same compound, the inhibition at 30 µM [11] was 27%, the inhibition at 30 µM ([12]; Homo sapiens, Bel-7402, 72 h) was over 50% and the “Inhibition of proliferation, Liver cancer BEL-7402” value ([12]; 72 hours, 30 µM) was 65%. It also gave an inhibition at 30 µM [13] of 30%.
